In patent publication US5593970A, “Heterocyclic anthracycline analogs” (priority 1994, dated 1997):
Where a name gives a salt, the structure may show the parent alone.

Legend:
[1] = test system: LS180; test: Soft agar colony formation disk diffusion assay; type: cell-based, human
Method in brief: (§1)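 Two-layer agar; upper 0.4% Noble agar/RPMI-1066 with cells, lower 0.8% agar + 0.8% Tryptic Soy Broth. Drug on 6.5 mm filter disk; 37 °C, 5% CO2, 10–20 d. Inhibition zone (disk edge to closest colony) read at 40× with eyepiece micrometer.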

[2] = test system: MCF7/ADR; test: Soft agar colony formation disk diffusion assay; type: cell-based, human
Method in brief: as §1

[3] = test system: MCF7; test: Soft agar colony formation disk diffusion assay; type: cell-based, human
Method in brief: as §1

[4] = test system: Leukemia; test: NCI assay, average per cancer type; settings: for CC50: 48 h, read-out: Average LOG10 LC50; for GI50: read-out: Average LOG10 GI50
[5] = test system: NSC Lung; test: NCI assay, average per cancer type; settings: Homo sapiens; for CC50: 48 h, read-out: Average LOG10 LC50; for GI50: read-out: Average LOG10 GI50
[6] = test system: SC Lung; test: NCI assay, average per cancer type; settings: Homo sapiens; for CC50: 48 h, read-out: Average LOG10 LC50; for GI50: read-out: Average LOG10 GI50
[7] = test system: CNS; test: NCI assay, average per cancer type; settings: Homo sapiens; for CC50: 48 h, read-out: Average LOG10 LC50; for GI50: read-out: Average LOG10 GI50
[8] = test system: Ovarian; test: NCI assay, average per cancer type; settings: Homo sapiens; for CC50: 48 h, read-out: Average LOG10 LC50; for GI50: read-out: Average LOG10 GI50
[9] = test system: tumor cell lines; test: NCI sulforhodamine B assay, all cell lines; settings: for CC50 / IC100 / GI50: Homo sapiens; for CC50 / IC100: 48 h; for CC50: read-out: Log10 LC50, Mean / MG-MID, all cell lines (converted); for IC100: read-out: Log10 TGI, Mean / MG-MID, all cell lines; for GI50: read-out: Log10 GI50, Mean / MG-MID, all cell lines (converted)
[10] = test system: SKOV3; test: Microculture tetrazolium assay; type: cell-based; settings: Homo sapiens, SK-OV-3, SKOV3; read-out: IC50
[11] = test system: T47D; test: Microculture tetrazolium assay; type: cell-based; settings: Homo sapiens, read-out: IC50

Row | Structure (SMILES) | zone of inhibition ([1]; 100 μg/DISK) | zone of inhibition ([2]; 100 μg/DISK) | zone of inhibition ([3]; 100 μg/DISK) | CC50 [4] | GI50 [4] | CC50 [5] | GI50 [5] | CC50 [6] | GI50 [6] | CC50 [7] | GI50 [7] | CC50 [8] | GI50 [8] | CC50 [9] | IC100 [9] | GI50 [9] | zone of inhibition ([1]; 10 μg/DISK) | zone of inhibition ([2]; 10 μg/DISK) | IC50 [10] | IC50 [11] | further results
1 | CCOC(=O)C1CC2=C(CO1)C(=O)c1cc3ccccc3c(O)c1C2=O (centres unmarked) [BCH-653, Ethyl(6 and 11 hydroxy-5,12-dioxo-3,4,5,12-tetrahydro-anthraceno[2,3-c]pyran-3-yl)]formate] | 35.5 ± 0.7 Zone Units | 91.5 ± 43.1 Zone Units | 106.1 ± 21.5 Zone Units | > 100 µM | 15.8 µM | > 100 µM | 44.7 µM | > 100 µM | 28.8 µM | > 100 µM | 50.1 µM | > 100 µM | 38 µM | 100 µM | 100 µM | 42.7 µM |  |  |  |  | 
2 | COC(=O)[C@H]1CC2=C(C(=O)c3c(c(OC)c4ccccc4c3O)C2=O)[C@H](O[C@H]2C[C@H](NC(=O)C(F)(F)F)[C@H](O)[C@H](C)O2)O1 (mixture of isomers) [BCH-675, (1'S,1S,3R) and 1'S,1R,3S) Methyl(11-hydroxy-6-methoxy-1-[2',3',6'-trideoxy-3-trifluoroacetamido-4'-hydroxy-L-lyxohexopyranose]-5,12-dioxo-3,4,5,12-tetrahydroanthra-ceno[2,3-c]pyran-3-yl) formate] | 148.4 ± 31.3 Zone Units | 26.3 ± 14.0 Zone Units | 30.5 ± 10.5 Zone Units | > 100 µM | 2.95 µM | 56.2 µM | 9.33 µM |  | 7.24 µM | 61.7 µM | 10.7 µM | 63.1 µM | 8.51 µM | 57.5 µM | 21.4 µM | 7.94 µM | 0 Zone Units | 0 Zone Units | 9.16 µM | 2.8 µM | zone of inhibition ([3]; 10 μg/DISK): 0 Zone Units
3 | CCOC(=O)[C@@H]1CC2=C(C(=O)c3cc4ccccc4c(O)c3C2=O)[C@@H](O[C@H]2C[C@H](NC(=O)C(F)(F)F)[C@H](O)[C@H](C)O2)O1 [BCH-681, (1'S,1R,3S)Ethyl[6-hydroxy-5,12-dioxo-1-(3'-trifuloroacetamido-1-daunosaminyl)-3,4,5,12-tetrahydroanthraceno(2,3-C)pyran-3-yl]formate] |  | 326.3 ± 56.0 Zone Units |  | < 100 µM | 2.04 µM | 22.9 µM | 2.88 µM | 6.61 µM | 1.7 µM | 22.4 µM | 2.88 µM | 16.6 µM | 2.69 µM | 16.2 µM | 5.5 µM | 2.14 µM |  | 82.7 ± 30.1 Zone Units | 6.02 µM | 8.15 µM | 
4 | CCOC(=O)C1CC2=C(CO1)C(=O)c1c(cc3ccccc3c1O)C2=O (centres unmarked) [BCH-651, Ethyl(6 and 11 hydroxy-5,12-dioxo-3,4,5,12-tetrahydro-anthraceno[2,3-c]pyran-3-yl)]formate] | 76.2 ± 21.5 Zone Units | 131.1 ± 30.1 Zone Units | 115.9 ± 8.6 Zone Units | > 100 µM | 3.31 µM | 50.1 µM | 7.76 µM | 61.7 µM | 2.75 µM | 64.6 µM | 10 µM | 46.8 µM | 5.89 µM | 58.9 µM | 21.4 µM | 5.5 µM | 0 Zone Units | 10.0 ± 5.0 Zone Units | 20.8 µM | 36.3 µM | antiproliferative and cytotoxic activity in words [9]: strong antiproliferative (GI50) and potent cytotoxic (LC50) activities
5 | COC(=O)[C@@H]1CC2=C(C(=O)c3c(c(OC)c4ccccc4c3O)C2=O)[C@@H](O[C@H]2C[C@H](NC(=O)C(F)(F)F)[C@H](O)[C@H](C)O2)O1 (mixture of isomers) [BCH-674, (1'S,1S,3R) and 1'S,1R,3S) Methyl(11-hydroxy-6-methoxy-1-[2',3',6'-trideoxy-3-trifluoroacetamido-4'-hydroxy-L-lyxohexopyranose]-5,12-dioxo-3,4,5,12-tetrahydroanthra-ceno[2,3-c]pyran-3-yl) formate] | 67.1 ± 8.6 Zone Units | 339.6 ± 4.3 Zone Units | 76.2 ± 21.6 Zone Units | > 100 µM | 8.71 µM | 69.2 µM | 9.33 µM | 120 µM | 13.2 µM | 63.1 µM | 13.8 µM | 83.2 µM | 15.8 µM | 67.6 µM | 30.2 µM | 12.3 µM | 0 Zone Units | 0 Zone Units | 7.46 µM | 4.17 µM | zone of inhibition ([3]; 10 μg/DISK): 0 Zone Units
6 | COC(=O)C1CC2=C(C(=O)c3c(cc4ccccc4c3O)C2=O)C(O[C@H]2C[C@H](NC(=O)C(F)(F)F)[C@H](O)[C@H](C)O2)O1 (mixture of isomers) [BCH-242, (1'S,1R,3S) and (1'S, 1S,3R)-Methyl[11-hydroxy-1-2',3',6'-trideoxy-3-trifluroacetamido-L-lyxohexopyranose)-5,12-dioxo-3,4,5,12-tetrahydroanthraceno[2,3-c]pyran-3-yl]formate] |  |  |  | > 100 µM | 0.316 µM | 6.17 µM | 0.977 µM |  | 0.355 µM |  | 1.55 µM |  | 0.741 µM | 14.5 µM | 5.25 µM |  |  |  |  |  | antiproliferative and cytotoxic activity in words [9]: most of the cell lines of solid tumors ultimately show cytotoxicity to the drug; Log10 TGI, Mean / MG-MID ([9]; all cell lines): -5.52 log molar; Log10 LC50, Mean / MG-MID ([9]; all cell lines, 2880 min): -5.09 log molar
7 | CCOC(=O)[C@@H]1CC2=C(C(=O)c3c(c(O)c4ccccc4c3OC(C)=O)C2=O)[C@@H](O)O1 (mixture of isomers) [BCH-658, (1S,3S) and (1R,3R) Ethyl[11-acetoxy-1,6-dihydroxy-5,12-dioxo-3,4,5,12-tetrahydroanthraceno (2,3-c)pyran-3-yl]formate] | 164.7 ± 25.8 Zone Units | 0 Zone Units |  | > 100 µM | > 100 µM | > 100 µM | > 100 µM | > 100 µM | > 100 µM | > 100 µM | 46.8 µM | > 100 µM | > 100 µM | 100 µM | 97.7 µM | 70.8 µM | 48.8 ± 34.5 Zone Units | 0 Zone Units | 11.2 µM | > 100 µM | zone of inhibition ([3]; 10 μg/DISK): 0 Zone Units
8 | CCOC(=O)[C@@H]1CC2=C(C(=O)c3cc4ccccc4c(OC(C)=O)c3C2=O)[C@@H](O)O1 (mixture of isomers) [BCH-660, (1S,3S) and (1R,3R)-Ethyl-[6-acetoxy-1-hydroxy-5,12-dioxo-3,4,5,12-tetrahydroanthraceno (2,3-c)pyran-3-yl]formate] | 76.0 ± 4.2 Zone Units | 109.8 ± 10.0 Zone Units | 82.3 ± 12.9 Zone Units | > 100 µM | 0.316 µM | 19.5 µM | 0.977 µM | > 100 µM | 1 µM | 15.8 µM | 0.955 µM | 6.61 µM | 0.955 µM | 21.4 µM | 2.82 µM | 0.813 µM | 15.0 ± 4.2 Zone Units | 9.1 ± 4.3 Zone Units | 5.34 µM | 6.67 µM | zone of inhibition ([3]; 10 μg/DISK): 27.4 ± 4.3 Zone Units; antiproliferative and cytotoxic activity in words [9]: strong antiproliferative (GI50) and potent cytotoxic (LC50) activities
